Read-outs that look alike come from different tables or passages of the source.
How the values were obtained:
[1] = tested on: P. falciparum male gametocytes; experiment: P. falciparum Dual Gamete Formation Assay (PfDGFA), male readout (exflagellation); type: cell-based, Plasmodium falciparum NF54; details: for Selectivity Ratio M: HepG2 Tox50 versus male IC50; for Average inhibition male (%): average of replicates; for % inhibition male (individual replicates) R1: replicate R1; for % inhibition male (individual replicates) R3: replicate R3; for % inhibition male (individual replicates) R4: replicate R4; for IC50: read-out: Male IC50; for HitlevelM: number of replicates with >50% inhibition in the male readout
In short: (§1)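 Male and female gamete formation were quantified by microscopy image analysis following 24 h incubation of mature NF54 gametocytes with compound and activation at 28°C with xanthurenic acid.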

[2] = tested on: P. falciparum female gametocytes; experiment: P. falciparum Dual Gamete Formation Assay (PfDGFA), female readout (Pfs25-positive female gametes); type: cell-based, Plasmodium falciparum NF54; details: for Selectivity ratio F: HepG2 Tox50 versus female IC50; for Average inhibition female (%): average of replicates; for % inhibition female (individual replicates) R1: replicate R1; for % inhibition female (individual replicates) R3: replicate R3; for % inhibition female (individual replicates) R4: replicate R4; for IC50: read-out: Female IC50; for HitlevelF: number of replicates with >50% inhibition in the female readout
In short: as §1

HepG2 cells = experiment: HepG2 cytotoxicity counter-screen
[3] = PfDGFA at 2µM, 24h preincubation with gametocytes
[4] = PfDGFA, 24 h incubation with gametocytes before induction, exflagellation readout
[5] = PfDGFA, 24 h incubation with gametocytes before induction, female gamete readout
[6] = cytotoxic activity against HepG2 cells
[7] = 2µM, 24h preincubation with gametocytes prior to induction of gametogenesis

| SMILES | Selectivity Ratio M [1] | Average inhibition male (%) [1, 3] | % inhibition male (individual replicates) R1 [1, 3] | % inhibition male (individual replicates) R3 [1, 3] | % inhibition male (individual replicates) R4 [1, 3] | IC50 [1, 4] | HitlevelM ([1]; 2µM) | Selectivity ratio F [2] | Average inhibition female (%) [2, 3] | % inhibition female (individual replicates) R1 [2, 3] | % inhibition female (individual replicates) R3 [2, 3] | % inhibition female (individual replicates) R4 [2, 3] | IC50 [2, 5] | HitlevelF ([2]; 2µM) | Tox50 (HepG2 cells; [6]) | further results |
| --- | --- | --- | --- | --- | --- | --- | --- | --- | --- | --- | --- | --- | --- | --- | --- | --- |
| COc1ccc(CCNCCCCCCNCCc2ccc(Cl)cc2)c(Cl)c1OC.Cl [TCMDC-131272] | 2.8 | 69.3% | 64.8% | 45.7% | 90.2% | 1760 nM | 3 | 1.14 | 29.4% | 25.7% | -3.5% | 29.5% | 4350 nM | 1 | 4.93 µM | – |
| C[C@H](Cc1ccc(Oc2ccc(C[C@@H](C)NC[C@H](O)c3cccc(Cl)c3)cc2)cc1)NC[C@H](O)c1cccc(Cl)c1.Cl [TCMDC-131560] | 2.05 | 76.2% | 79.7% | 57.0% | 91.6% | 1500 nM | 4 | 1.25 | 43.2% | 35.8% | 26.6% | 73.1% | 2460 nM | 1 | 3.07 µM | – |
| C[C@H](Cc1ccc(OCCCCCOc2ccc(C[C@@H](C)NC[C@H](O)c3cccc(Cl)c3)cc2)cc1)NC[C@H](O)c1cccc(Cl)c1.Cl [TCMDC-131563] | 2.4 | 65.6% | 66.8% | 65.3% | 85.7% | 1350 nM | 3 | 1.3 | 27.5% | 37.3% | 14.2% | 41.5% | 2490 nM | 0 | 3.24 µM | – |
| CC[C@H]1CN2CCc3cc(OC)c(OC)cc3[C@@H]2C[C@@H]1C[C@H]1NCCc2c1cc(OC)c(O)c2Cl [TCMDC-131802] | – | – | – | – | – | 1910 nM | – | – | – | – | – | – | 640 nM | – | – | Average inhibition male (%) [1, 7]: 54.2%; % inhibition male (individual replicates) R1 [1, 7]: 49.4%; % inhibition male (individual replicates) R3 [1, 7]: 27.8%; % inhibition male (individual replicates) R4 [1, 7]: 72.9%; HitlevelM ([1]; 2µM, 24h preincubation): 2; Average inhibition female (%) [2, 7]: 66.5%; % inhibition female (individual replicates) R1 [2, 7]: 51.1%; % inhibition female (individual replicates) R3 [2, 7]: 66.5%; % inhibition female (individual replicates) R4 [2, 7]: 85.4%; HitlevelF ([2]; 2µM, 24h preincubation): 4; Tox50 (HepG2 cells): 1.67 µM |
| Br.CC[C@H]1CN2CCc3cc(OC)c(OC)cc3[C@@H]2C[C@@H]1C[C@H]1NCCc2c1cc(OC)c(O)c2I [TCMDC-131829] | 7.59 | – | – | – | – | – | 4 | 21.58 | – | – | – | – | – | 4 | 6.35 µM | IC50 ([1]; Plasmodium falciparum, 24 h): 840 nM; inhibition at 2 µM ([1]; Plasmodium falciparum, read-out: % inhibition male (individual replicates) R1): 84.6%; inhibition at 2 µM ([1]; Plasmodium falciparum, read-out: % inhibition male (individual replicates) R2): 83.8%; inhibition at 2 µM ([1]; Plasmodium falciparum, read-out: % inhibition male (individual replicates) R3): 88.6%; inhibition at 2 µM ([1]; Plasmodium falciparum, read-out: % inhibition male (individual replicates) R4): 95.7%; inhibition at 2 µM ([1]; Plasmodium falciparum, read-out: Average inhibition male (%)): 88.2%; IC50 ([2]; Plasmodium falciparum, 24 h): 290 nM; inhibition at 2 µM ([2]; Plasmodium falciparum, read-out: % inhibition female (individual replicates) R1): 83.8%; inhibition at 2 µM ([2]; Plasmodium falciparum, read-out: % inhibition female (individual replicates) R2): 92.3%; inhibition at 2 µM ([2]; Plasmodium falciparum, read-out: % inhibition female (individual replicates) R3): 106%; inhibition at 2 µM ([2]; Plasmodium falciparum, read-out: % inhibition female (individual replicates) R4): 88.5%; inhibition at 2 µM ([2]; Plasmodium falciparum, read-out: Average inhibition female (%)): 92.8% |

Reference: PMC10584170, “Machine learning-based phenotypic imaging to characterise the targetable biology of Plasmodium falciparum male gametocytes for the development of transmission-blocking antimalarials” (PLOS Pathogens, 2023)
